The assay can be described thus: Concentration required for 50% inhibition of thrombin induced platelet aggregation. Format: functional.

SMILES strings stand for the structures. pIC50: −log10 of the molar value.

Usually pIC50 stands for the negative decadic logarithm of the IC50, by convention in mol/L. A low value points to a high IC50. As for `C[C@@H]1CCN(C(=O)[C@H](CCCNC(=N)N)NS(=O)(=O)c2cccc3c2NC[C@H](C)C3)[C@@H](C(=O)O)C1` [ARGATROBAN], the pIC50 is 8.05.

For the origin of these results see ChEMBL document CHEMBL1133885, “A short synthesis of argatroban. a potent selective thrombin inhibitor” (Bioorg Med Chem Lett, 2001).
